Measured values reported in patent US20260048066A1, “TREATMENT OF NEURODEGENERATIVE DISORDERS UTILISING METHYLTHIONINIUM (MT)-CONTAINING COMPOUNDS” (WISTA LABORATORIES LTD, priority 2022, published 2026).
Where two headings read alike, the source gives them in different places.

Columns and labels:
[1] = LUCIDITY trial: plasma HMT/MT levels; assay type: in vivo; details: human, oral
Experimental: At Visits 2, 3, 7 and 10, timed morning blood samples are collected for determination of plasma level of the drug. Samples are collected prior to dosing and then at 1, 2, and 4 hours post dose. A single blood sample for apolipoprotein E (ApoE) is obtained from participants who provide informed consent at any time after eligibility determination and prior to Visit 7. Blood may also be analyzed for other biomarkers for possible future research related to determination of potential biomarker predictors or surrogates for treatment response, to be described in a separate protocol.
All patients received 16 mg/day (i.e. 8 mg twice daily) from Visit 7 onwards.
The steady-state plasma concentrations (Visit 4. 1 h post-dose) in each dosing arm was investigated further. Patients were grouped based on plasma concentration.

[2] = system: participants with severity ranging from mild cognitive impairment (MCI) to moderate AD; experiment: LUCIDITY Phase 3 trial: cognitive (ADAS-cog), functional (ADCS-ADL) and brain atrophy outcomes; assay type: in vivo, human
From the text: The LUCIDITY trial (NCT03446001; EudraCT: 2017-003558-17) is a Phase 3, randomized, double-blind, placebo-controlled, outpatient trial to evaluate the safety, efficacy, and tolerability of hydromethylthionine mesylate monotherapy in participants with severity ranging from mild cognitive impairment (MCI) to moderate AD. The initial 12-month blinded period is followed by a 12-month, open-label extension period to provide comparative, delayed-start data. There are 76 study sites located in Canada, France, Italy, Poland, Spain, United Kingdom and United States. The protocol was approved by an institutional review board or independent ethics committee at each site.
Following screening, eligible participants are randomized at baseline in a 4:1:4 ratio to receive hydromethylthionine mesylate 16 mg/day, hydromethylthionine mesylate 8 mg/day, or placebo. Following completion of the 52-week double-blind treatment period, all participants continue open-label treatment with hydromethylthionine mesylate 16 mg/day for a further 52 weeks. Participants who were randomized to start on HMTM are considered early-starters; patients who begin on placebo and switch to HMTM at week 52 are considered delayed starters. Unlike a traditional delayed start design, in which participants remain blinded to treatment throughout the trial, treatment during weeks 52 to 104 is open-label, although participants and the site study staff remain blinded to prior treatment assignment. Randomization was stratified by severity (three levels: MMSE 16-19, 20-25, or 26-27, with a target ratio of approximately 2:3:1), prior use of symptomatic treatments (AChEls and/or memantine-two levels: prior use or none), and region (two levels: Canada/USA or UK/Europe). To achieve this target, enrolment was monitored and controlled at the site level for high recruiting sites and capped as needed at the study level. Patients who dropped out after randomization were not replaced, but participants were encouraged to continue with study visits off treatment until the scheduled completion of the double-blind treatment period (Visit 7). Only participants who continued in the study and receive hydromethylthionine mesylate treatment up to and including the last visit (Visit 10) without the addition of concomitant AChEls and/or memantine were eligible for continued treatment in a subsequent expanded access program.
The active and placebo treatment formulations are tablets that look visually the same. Hydromethylthionine mesylate can cause variable urinary discoloration. Therefore, to maintain blinding, the placebo group receives tablets containing a urinary discolourant (MTC, 4 mg) included among blank tablets containing only excipients on a varying schedule with an average frequency of 2/week.
Dosing frequency of 4 mg MTC tablets was on a varying schedule, such that each patient received a 4 mg tablet among the blanks on average twice per week. All subjects (on all arms) received 4 tablets at two times of day. This allowed for 2×4 mg followed by 2×4 mg to give 16 mg/day dose. 4 tablets were also given daily for placebo (2×placebo then 2×placebo) with 4 mg MTC tablets inserted at a rate of 2 per week i.e. 2 MTC tablets out of 28 per week, with remainder being true placebo.
Participants had to be aged less than 90 years and meet the diagnostic criteria for probable AD or MCI-AD and must not have been taking an AChEl or memantine, for at least 60 days at Baseline. They must have been community-dwelling, have a mini mental state exam (MMSE) score of 16-27, and with functional impairment as evidenced by a Clinical Dementia Dating (CDR) stage of 0.5 to 2 at screening. […] All patients must also have at least one study partner, consenting to their own participation; study partners can be changed so long as they have sufficient contact to complete outcome and safety assessments meaningfully and verify compliance with trial treatment. […]

[3] = system: participants with severity ranging from mild cognitive impairment (MCI) to moderate AD; experiment: LUCIDITY trial: safety and tolerability; assay type: in vivo, human
Experimental: All safety assessments are performed during Screening to assess subject eligibility, by an independent qualified medical assessor not involved in efficacy assessments. For the enrolled participants, safety assessments are undertaken at Baseline and at each clinic visit after 4, 13, 26, 39, and 52 weeks during the double-blind treatment period, as well as after 56 (telephone assessment, or on-site in UK), 78, and 104 weeks in the open-label, delayed-start phase; when needed to follow up on a treatment-emergent adverse event (AE); and upon early termination (Table 1). Patients are followed as needed for the resolution or stabilization of any AE, consistent with the investigator's medical judgement.

[4] = Completed hydromethylthionine mesylate Phase 3 studies: estimated treatment effect; assay type: in vivo, human
Experimental: Sample size estimations to achieve 90% power (two-sided alpha=0.05) to detect a difference between hydromethylthionine mesylate 16 mg/day and placebo, the primary treatment group comparison in the double-blind treatment period, have been performed for the two co-primary clinical end points, assuming a withdrawal rate of 20% to 25%. The study sample size of approximately 450 is based on the ADCS-ADL23, which has a larger standard deviation (SD) than ADAS-Cog11. Based on an estimated decline in ADCS-ADL23 over 52 weeks in the control arm of 7.7 units with an estimated SD of 8.5 units, the study will have >90% power to detect a reduction in decline of 3.4 units or more. The 3.4-unit effect size is derived from an estimated treatment effect of 5.0±1.6 (mean±standard error) units in the completed hydromethylthionine mesylate studies. Based on an estimated decline of 6.5 units in ADAS-Cog11 over 52 weeks with an estimated SD of 5.9 units, 200 participants per treatment arm provide >90% power to detect a reduction in decline of 2.6 units or more, provided by a conservative value of the estimated treatment effect based on pooled completed Phase 3 studies of −5.2±1.3 (mean±standard error) units in completed hydromethylthionine mesylate studies.

red cells = details: in vivo, administered intravenously; cited from earlier work
[5] = LUCIDITY trial: plasma HMT/MT levels; assay type: in vivo, human; details: MTC 4 mg twice weekly; after 12 months of treatment
[6] = 16 mg/day, whole study population, MCI to moderate disease

Structure (SMILES): CN(C)c1ccc2c(c1)Sc1cc(N(C)C)ccc1N2 [HMT, N3,N3,N7,N7-tetramethyl-10H-phenothiazine-3,7-diamine]
- concentration at 1 h ([1]; all dosing arms pooled, steady-state plasma, 1 h post-dose, read-out: Mean value HMT conc): 0.2 ng/mL
- concentration at 1 h ([1]; all dosing arms pooled, sub-group BLLOQ (values set to zero), 1 h post-dose, read-out: Mean value HMT conc): 0 ng/mL
- concentration at 1 h ([1]; all dosing arms pooled, sub-group high, 1 h post-dose, read-out: Mean value HMT conc): 0.41 ng/mL
- concentration at 1 h ([1]; all dosing arms pooled, sub-group mid, 1 h post-dose, read-out: Mean value HMT conc): 0.04 ng/mL
- concentration at 1 h ([1]; all dosing arms pooled, sub-group ultralow, 1 h post-dose, read-out: Mean value HMT conc): 0.01 ng/mL

Structure (SMILES): CN(C)c1ccc2c(c1)Sc1cc(N(C)C)ccc1N2.CS(=O)(=O)O.CS(=O)(=O)O [LMTM, N,N,N′,N′-tetramethyl-10H-phenothiazine-3,7-diaminium bis(hydromethanesulfonate)]
- disease progression by change in cognitive function (p=0.0008) and brain atrophy (p<0.0001) against matched ADNI subjects ([2]; 16 mg/day): Statistically significant reductions in disease progression
- decline in cognitive and functional measures ([2]; 16 mg/day LMTM as monotherapy): zero or minimal decline
- decline on ADAS-cog11 over the first 12 months [2, 6]: 1.3 ADAS-cog11 units
- decline on ADCS-ADL23 over the first 12 months [2, 6]: −1.0 ADCS-ADL23 units
- cognitive improvement over baseline on the ADAS-cog13 scale ([2]; 105 patients with MCI, 16 mg/day, at 6 months (p=0.0002), 12 months (p=0.0391) and 18 months (p=0.0473)): 2 units
- cognitive decline in the first 9 months ([2]; 147 patients with mild/moderate AD, 16 mg/day): 2.5 unit
- cognitive decline over the following 9 months ([2]; 147 patients with mild/moderate AD, 16 mg/day, months 9 to 18): no further decline
- rate of progression of brain atrophy ([2]; MCI participants, HMTM 16 mg/day, versus ADNI MCI subjects (p<0.0001)): significantly less than in ADNI MCI subjects
- mean change on the instrumental activities of daily living subscale of ADCS-ADL ([2]; MCI patients, 16 mg/day, at 6, 12 and 18 months): remained above the pre-treatment baseline
- reduction in functional decline relative to published meta-analysis of placebo decline data ([2]; mild/moderate AD, 16 mg/day, ADCS-ADL): about 75%
- functional decline on the ADCS-ADL scale ([2]; mild/moderate AD, 16 mg/day, at 12 months): −2 units
- functional decline on the ADCS-ADL scale ([2]; mild/moderate AD, 16 mg/day, at 18 months): −3 units
- treatment effects on cognitive and functional decline versus placebo decline data of anti-amyloid trials ([2]; over 18 months): about three-fold larger
- concentration at 1 h ([1]; 8 mg/day, 8 mg/day LMTM arm, sub-group BLLOQ (set to zero), steady state 1 h post-dose, read-out: Mean HMT conc): 0 ng/mL
- concentration at 1 h ([1]; 8 mg/day, 8 mg/day LMTM arm, sub-group high, steady state 1 h post-dose, read-out: Mean HMT conc): 0.26 ng/mL
- concentration at 1 h ([1]; 8 mg/day, 8 mg/day LMTM arm, sub-group mid, steady state 1 h post-dose, read-out: Mean HMT conc): 0.05 ng/mL
- concentration at 1 h ([1]; 16 mg/day, 16 mg LMTM/day group, week 4, 1h post dose, read-out: overall mean plasma concentration): 0.5 ng/mL
- concentration at 1 h ([1]; 16 mg/day, 16 mg/day LMTM arm, sub-group BLLOQ (set to zero), steady state 1 h post-dose, read-out: Mean HMT conc): 0 ng/mL
- concentration at 1 h ([1]; 16 mg/day, 16 mg/day LMTM arm, sub-group high, steady state 1 h post-dose, read-out: Mean HMT conc): 0.5 ng/mL
- concentration at 1 h ([1]; 16 mg/day, 16 mg/day LMTM arm, sub-group mid, steady state 1 h post-dose, read-out: Mean HMT conc): 0.04 ng/mL
- concentration at 1 h ([1]; 16 mg/day, 16 mg/day LMTM arm, sub-group ultralow, steady state 1 h post-dose, read-out: Mean HMT conc): 0.02 ng/mL
- treatment-related serious adverse events and amyloid related imaging abnormalities (ARIA) [3]: no treatment-related serious adverse events or evidence of amyloid related imaging abnormalities (ARIA)
- estimated treatment effect on ADCS-ADL23 (mean±standard error) ([4]; completed hydromethylthionine mesylate studies): 5.0±1.6 units
- estimated treatment effect on ADAS-Cog11 (mean±standard error) ([4]; pooled completed Phase 3 studies): −5.2±1.3 units
- MT uptake into red cells, fold higher compared with MTC (red cells): approximately 20 fold

Structure (SMILES): CN(C)c1ccc2nc3ccc(N(C)C)cc3[s+]c2c1 [MTC, methylthioninium chloride]
- treatment effect on ADAS-cog compared to expected decline ([2]; control group (4 mg MTC twice weekly), high plasma HMT group, 12 months): -4.73±2.01
- ADAS-cog decline ([2]; control group (4 mg MTC twice weekly), ultra-low plasma HMT cases, 12 months): 3.75±0.79
- AD patients with plasma levels above 0.10 ng/ml (Cmax) [5]: 89%
